Data on 11 compounds can be found in paper PMC8864676 (Organic & biomolecular chemistry, 2022).

In experiment [1] the target is T1, PutA86–630 (PRODH domain of proline utilization A) (Escherichia coli, UniProt P09546). Format: biochemical. To be noted: for ΔΔG, loss of binding energy relative to 1 / fold change in Ki relative to 1: chemical double mutant cycle; for fold change in Ki relative to 1: from Ki values; for kcat: kcat of PutA86–630 from the global fit of the data set with this inhibitor.
T1 sequence (P09546 86-630): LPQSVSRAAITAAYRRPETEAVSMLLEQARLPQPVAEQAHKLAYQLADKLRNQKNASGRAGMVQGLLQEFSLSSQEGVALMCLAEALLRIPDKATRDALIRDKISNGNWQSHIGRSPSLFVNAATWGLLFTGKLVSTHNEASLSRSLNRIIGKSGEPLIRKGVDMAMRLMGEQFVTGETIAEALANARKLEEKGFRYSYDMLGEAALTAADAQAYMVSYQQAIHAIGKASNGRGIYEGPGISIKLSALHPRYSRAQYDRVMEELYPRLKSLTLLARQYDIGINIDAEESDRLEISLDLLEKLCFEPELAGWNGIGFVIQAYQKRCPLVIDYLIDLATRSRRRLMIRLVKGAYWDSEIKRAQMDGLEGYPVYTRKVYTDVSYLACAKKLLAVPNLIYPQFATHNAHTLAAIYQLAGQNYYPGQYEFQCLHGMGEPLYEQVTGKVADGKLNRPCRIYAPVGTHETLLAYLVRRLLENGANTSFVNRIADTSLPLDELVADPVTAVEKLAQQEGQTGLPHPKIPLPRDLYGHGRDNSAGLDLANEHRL

The target in experiment [2] is T1, PutA86–630 (PRODH domain of proline utilization A). Kind of experiment: Initial single-point screening of compounds for inhibition of PRODH activity. It counts as biochemical. To be noted: for inhibition in the single-point assay (in words): 13, 15, 16 compared with 1; for inhibition at 5000 µM: read-out: inhibition in the single-point assay.
In a further experiment the target is PRODH. Conditions: cited from earlier work.
Where [3] appears, read: 5 mM inhibitor, 200 mM L-proline.

Values joined by “and” are separate entries in the source; they are usually repeats but may differ in a detail not shown here. Equal entries are not always repeated.

For `O=C(O)C1CCCC1` [Compound 16, cyclopentanecarboxylic acid], the “ΔΔG, loss of binding energy relative to 1” value in experiment [1] (calculated from Ki values) was roughly 2 kcal/mol. In experiment [1], the “fold change in Ki relative to 1” value is 20 fold and the turnover number (kcat) stood at 1.35 ± 0.04 s⁻¹. Further, the “inhibition in the single-point assay (in words)” value (from here on “inhibition … (in words)”) in experiment [2] (setting [3]) is recorded as “severely decreases inhibition”.
With `C[C@H](O)C(=O)O` [L-lactic acid], the Ki on PRODH is roughly 1000 µM.
For “(S)-(−)-tetrahydro-2-furoic acid [Compound 1, reference compound]”, in experiment [1], the kcat amounted to 1.16 ± 0.03 s⁻¹. In addition, in experiment [2] (setting [3]), the “enzyme activity relative to the no-inhibitor control” value is 12%. Moreover, the inhibitory constant (Ki) on PRODH is 200 to 1000 µM.
`O=C(O)C1CCC1` [Compound 3, cyclobutanecarboxylic acid]: in experiment [1] (cyclopentane of 16 decreased to cyclobutane, calculated from Ki values), the “ΔΔG, improvement of affinity relative to 16” value was 0.71 kcal/mol and 0.7 kcal/mol. In addition, in experiment [1], the kcat was 1.47 ± 0.05 s⁻¹. For the same compound, in experiment [1] (removing the O heteroatom from 18, calculated from Ki values), the “ΔΔG, loss of binding energy relative to 18” value was “about 0.2 kcal/mol”. Further, in experiment [2] (setting [3]), the “reduction of enzyme activity relative to the no-inhibitor control” value was “over 2 fold”. For the same compound, the inhibition at 5000 µM in experiment [2] was greater than 50%.
For `NC(=O)[C@@H]1CCCO1` [Compound 13, (S)-(−)-tetrahydrofuran-2-carboxamide], the “inhibition … (in words)” value in experiment [2] (setting [3]) is reported as “decreases inhibition”.
Still for that read-out and setting: for `O=C1CC(C(=O)O)C1` [Compound 10, 3-oxocyclobutanecarboxylic acid] the value was “very little inhibition”.
Regarding `CCC(=O)C(=O)O` [Compound 17, 2-oxobutyric acid], the kcat in experiment [1] worked out at 1.14 ± 0.02 s⁻¹. Also, the inhibition at 5000 µM in experiment [2] was greater than 50%.
Regarding `CC(=O)O` [acetic acid], at PRODH, the inhibition constant (Ki) is roughly 30000 µM.
With `O=C(O)C1CC1` [Compound 4, cyclopropanecarboxylic acid], the kcat in experiment [1] amounted to 1.20 ± 0.03 s⁻¹. For the same compound, the “ΔΔG, decrease of affinity relative to 3” value in experiment [1] (ring size decreased from cyclobutane to cyclopropane, calculated from Ki values) was 0.3 kcal/mol.
In the case of `O=C(O)[C@@H]1CCO1` [Compound 18, (2S)-oxetane-2-carboxylic acid], in experiment [1] (calculated from Ki values), the “ΔΔG, loss of binding energy relative to 1” value was 0.95 kcal/mol. Also, in experiment [1], the “fold change in Ki relative to 1” value turned out to be 5 fold and the kcat came out at 1.42 ± 0.04 s⁻¹. For the same compound, the “reduction of enzyme activity relative to the no-inhibitor control” value in experiment [2] (setting [3]) is listed as “over 2 fold”. Besides, in experiment [2], the inhibition at 5000 µM is greater than 50%.
On to `O=C(O)C1CCCCO1` (centres unmarked) [Compound 15, tetrahydropyran-2-carboxylic acid], for which the “inhibition … (in words)” value in experiment [2] (setting [3]) is reported as “severely decreases inhibition”.
